We go through 1 compound from paper PMC8967248, “Impact of Porphyrin Binding to GENOMES UNCOUPLED 4 on Tetrapyrrole Biosynthesis in planta” (Frontiers in Plant Science, 2022).

The target of experiment [1] is T1, GUN4 (AtGUN4) (Arabidopsis thaliana, UniProt Q9LX31, F191A).
T1 construct: 6xHis-tagged, pQE80_AtGUN4(WT), expressed in and purified from E. coli
T1 sequence (Q9LX31 70-265 F191A): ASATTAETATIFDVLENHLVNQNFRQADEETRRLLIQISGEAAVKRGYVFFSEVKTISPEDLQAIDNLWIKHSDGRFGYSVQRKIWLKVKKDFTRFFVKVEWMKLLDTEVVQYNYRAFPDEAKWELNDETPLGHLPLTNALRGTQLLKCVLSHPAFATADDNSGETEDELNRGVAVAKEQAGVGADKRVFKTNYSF
The experiment is described as follows: tryptophan fluorescence quenching. In kind it is binding. The note with it: read-out: apparent Kd.

In experiment [2] the target is T2, GUN4 (AtGUN4) (Arabidopsis thaliana, UniProt Q9LX31).
T2 construct: 6xHis-tagged, pQE80_AtGUN4(WT), expressed in and purified from E. coli
T2 sequence (Q9LX31 70-265): T1 sequence (Q9LX31 70-265 F191A) with A122F
The experiment is described as follows: tryptophan fluorescence quenching. In kind it is binding. The note with it: read-out: apparent Kd.

The structures appear in SMILES notation. Changes are numbered by the printed parent chain.

On to `C=CC1=C(C)c2cc3[nH]c(cc4nc(cc5[nH]c(cc1n2)c(C)c5CCC(=O)O)C(CCC(=O)O)=C4C)c(C)c3C=C` [PIX], for which the Kd on GUN4 (AtGUN4) [1] was found to be 2100 ± 280 nM; on GUN4 (AtGUN4) [2] it was 1050 ± 120 nM.
